Data on 10 compounds can be found in ChEMBL document CHEMBL5550185, “Targeting hTERT Promoter G-Quadruplex DNA Structures with Small-Molecule Ligand to Downregulate hTERT Expression for Triple-Negative Breast Cancer Therapy” (J Med Chem, 2024).

Each structure is given as a SMILES string.

Usually IC50 stands for the concentration needed to halve the response being measured.

One data set deals with A549. Put plainly: Cytotoxicity against telomerase-positive human A549 cells assessed as inhibition of cell growth incubated for 48 hrs by MTT assay. Conditions: A549, 48 h. It counts as functional, cell-based. (Formazan colour is commonly taken as a measure of viable cells.)
Another data set concerns U2OS. In words: Cytotoxicity against alternative lengthening of telomere-positive human U2OS cells assessed as inhibition of cell growth incubated for 48 hrs by MTT assay. It counts as functional, cell-based.
Data set [1] can be described thus: Cytotoxicity against HUVEC cells assessed as inhibition of cell growth incubated for 48 hrs by MTT assay. The settings on record: human. It counts as toxicity, cell-based.
Data set [2] is described as follows: Cytotoxicity against human HK-2 cells assessed as inhibition of cell growth incubated for 48 hrs by MTT assay. It counts as toxicity, cell-based.
For the next data set, the system named is HeLa. Put plainly: Cytotoxicity against telomerase-positive human HeLa cells assessed as inhibition of cell growth incubated for 48 hrs by MTT assay. The format is functional, cell-based.
The subject of another data set is HepG2. Put plainly: Cytotoxicity against telomerase-positive human HepG2 cells assessed as inhibition of cell growth incubated for 48 hrs by MTT assay. The format is functional, cell-based. The settings on record: HepG2, 48 h.
Another data set has as its system PC-3. In words: Cytotoxicity against telomerase-positive human PC-3 cells assessed as inhibition of cell growth incubated for 48 hrs by MTT assay. Conditions: PC-3, 48 h. It counts as functional, cell-based.
Another data set deals with MDA-MB-231. In words: Cytotoxicity against telomerase-positive human MDA-MB-231 cells assessed as inhibition of cell growth incubated for 48 hrs by MTT assay. The settings on record: MDA-MB-231, 48 h. It counts as functional, cell-based.

Consider `C[n+]1c(/C=C/c2cc3ccccc3[nH]2)cc(/C=C2\Sc3ccccc3N2CCCN2CCC(C(F)(F)F)CC2)c2ccccc21`, for which the IC50 with A549 amounted to 6.6 µM; in the data set with U2OS it was 9.8 µM; in the data set with HeLa, 5.5 µM; with HepG2, 4.7 µM; with PC-3, 3.9 µM; with MDA-MB-231, 5.3 µM. Also, the IC50 at 48 h in data set [1] turned out to be 12 µM; in data set [2], 14.7 µM.
On to `C[n+]1c(/C=C/c2cc3ccccc3[nH]2)cc(/C=C2\Sc3ccccc3N2CCCN2CCOCC2)c2ccccc21`, for which the IC50 stood at 5 µM with A549; 14.8 µM with U2OS; 4.1 µM in the data set on HeLa; 5.2 µM in the data set with HepG2; 4.8 µM in the data set on PC-3; 6.4 µM in the data set with MDA-MB-231. The IC50 at 48 h in data set [1] worked out at 16.6 µM; in data set [2], 9.5 µM.
As for `C[n+]1c(/C=C/c2c[nH]c3ccccc23)cc(/C=C2\Sc3ccccc3N2CCCN2CCOCC2)c2ccccc21`, the IC50 in the data set with A549 amounted to 2.1 µM; in the data set on U2OS, 7.8 µM; in the data set with HeLa it was 2.3 µM; with HepG2, 5.8 µM; in the data set on PC-3 it was 4.7 µM; with MDA-MB-231, 2.9 µM. The results for the IC50 at 48 h in data set [1] and in data set [2] were 16.5 µM and 5.8 µM, respectively.
`CCN(CC)CCCN1/C(=C/c2cc(/C=C/c3cc4ccccc4[nH]3)[n+](C)c3ccccc23)Sc2ccccc21`: the IC50 was 4.7 µM with A549; 10.3 µM with U2OS; 3.3 µM in the data set on HeLa; 5.4 µM in the data set on HepG2; 3.1 µM with PC-3; 5.6 µM in the data set with MDA-MB-231. The IC50 at 48 h in data set [1] turned out to be 11.9 µM; in data set [2], 9.5 µM.
With `CC1CCN(CCCN2/C(=C/c3cc(/C=C/c4cc5ccccc5[nH]4)[n+](C)c4ccccc34)Sc3ccccc32)CC1`, the IC50 with A549 was found to be 4.3 µM; with U2OS, 6.2 µM; in the data set with HeLa, 3.1 µM; in the data set on HepG2 it was 5 µM; in the data set with PC-3, 2.5 µM; with MDA-MB-231, 2.6 µM. For the same compound, the figures for the IC50 at 48 h in data set [1] and in data set [2] were 8 µM and 6.3 µM, respectively.
For `CCN(CC)CCCN1/C(=C/c2cc(/C=C/c3c[nH]c4ccccc34)[n+](C)c3ccccc23)Sc2ccccc21`, the IC50 turned out to be 2.3 µM in the data set on A549; 9.4 µM in the data set on U2OS; 1.9 µM in the data set with HeLa; 4.7 µM in the data set on HepG2; 5.4 µM with PC-3; 2.1 µM in the data set on MDA-MB-231. Also, the IC50 at 48 h amounted to 14.5 µM in data set [1] and 4.6 µM in data set [2].
Turning to `C[n+]1c(/C=C/c2cc3ccccc3[nH]2)cc(/C=C2\Sc3ccccc3N2CCCN2CCCCC2)c2ccccc21`, the IC50 in the data set with A549 is 3.6 µM; in the data set with U2OS, 5 µM; in the data set with HeLa it was 3 µM; with HepG2 it was 4.5 µM; in the data set with PC-3, 3.3 µM; with MDA-MB-231 it was 3.3 µM. In addition, the figures for the IC50 at 48 h in data set [1] and in data set [2] were 9.4 µM and 7.9 µM, respectively.
Turning to `CC1CCN(CCCN2/C(=C/c3cc(/C=C/c4c[nH]c5ccccc45)[n+](C)c4ccccc34)Sc3ccccc32)CC1`, the IC50 amounted to 1.7 µM in the data set with A549; 5.3 µM with U2OS; 1.9 µM in the data set with HeLa; 3.2 µM in the data set on HepG2; 2.4 µM in the data set with PC-3; 1.9 µM in the data set on MDA-MB-231. For the same compound, the IC50 at 48 h is 6 µM in data set [1] and 5.5 µM in data set [2].
`CC(C)(C)OO` [TERT-BUTYL HYDROPEROXIDE]: the IC50 in the data set with MDA-MB-231 is 549 µM.
In the case of `C[n+]1c(/C=C/c2c[nH]c3ccccc23)cc(/C=C2\Sc3ccccc3N2CCCN2CCCCC2)c2ccccc21`, the concentration for half-maximal inhibition (IC50) turned out to be 1.7 µM in the data set on A549; 5.1 µM with U2OS; 1.8 µM in the data set with HeLa; 4.5 µM in the data set with HepG2; 3.8 µM with PC-3; 3.1 µM in the data set with MDA-MB-231. Further, the figures for the IC50 at 48 h in data set [1] and in data set [2] were 11.9 µM and 5.4 µM, respectively.
